In data set [1] the test system is HET or KO keratinocyte sheets. In words: Monolayer mechanical dissociation assay, SERCA2-deficient keratinocytes. It counts as cell-based, human. The note with it: HET or KO monolayers; trametinib 1 μM 48 hours; PD98059 20 μM 24 hours. On the procedure: (§1) Dispase-based mechanical dissociation assays were carried out as described (Simpson C L, et al. Am J Pathol. 2010; 177(6): p. 2921-37). Keratinocytes were plated at a density of 1×10^6 cells per well of 6-well cell culture dishes. Upon reaching confluence, the calcium concentration of the medium was adjusted to 1.3 mM. Vehicle control (DMSO) or chemical inhibitors were added at the following concentrations: […] After 24 to 72 hours, monolayers were washed with PBS and then incubated with 500 μL dispase (5 U/ml) in Hank's balanced salt solution (Stemcell Technologies of Vancouver, CA, Cat. #07913) for 30 minutes at 37° C. Next, 4.5 ml PBS was added to the wells and all liquid plus released monolayers were transferred into 15 mL conical tubes, which were placed together in a rack and inverted 5-10 times to induce mechanical stress. Monolayer fragments were transferred back into 6-well cell culture plates and imaged with a 12-megapixel digital camera. Fragments were counted in Fiji.

Data set [2] deals with NHEK monolayers. In words: Monolayer mechanical dissociation assay, SERCA2 inhibition with thapsigargin. It counts as cell-based, human. The note with it: 24 hours; for integrity of epithelial sheets despite SERCA2 inhibition: with 1 μM TG, 1 μM Tram, 10 μM U0126, 20 μM PD98059, 1 μM dabrafenib. On the procedure: as §1
Data set [3] relates to NHEK monolayers. In words: Monolayer mechanical dissociation assay, B-RAF inhibitor model of Grover disease. It counts as cell-based, human. The conditions noted are these: co-treatment with Dab or Vem; trametinib 1 μM, U0126 10 μM, PD98059 20 μM; 24 h. The method, then:
Dispase-based mechanical dissociation assays were carried out as described (70). Keratinocytes were plated at a density of 1×10^6 cells per well of 6-well cell culture dishes. Upon reaching confluence, the cells were switched into E-medium. Vehicle control (DMSO) or chemical inhibitors were added at the following concentrations: Dabrafenib (1 μM), vemurafenib (10 μM) trametinib (1 μM), U0126 (10 μM), or PD98059 (20 μM). After 24 h, monolayers were washed with PBS and then incubated with 500 μL dispase (5 U/ml) in Hank's balanced salt solution (Stemcell Technologies of Vancouver, Canada, Cat. #07913) for 30 minutes at 37° C. Next, 4.5 mL PBS was added to the wells and all liquid plus released monolayers were transferred into 15 mL conical tubes, which were placed together in a rack and inverted 1-10 times to induce mechanical stress. Monolayer fragments were transferred back into 6-well cell culture plates and imaged with a 12-megapixel digital camera. Fragments were counted in Fiji.

Data set [4] deals with organotypic epidermis grown from NHEKs. In words: Histology (H&E) of organotypic epidermis treated with TG. It counts as cell-based, human.
The subject of data set [5] is HET cells (SERCA2-depleted keratinocytes, THEKs). In words: RT-qPCR of keratinocyte mRNA transcripts. The conditions noted are these: HET cells in E-medium 24 hours; trametinib 1 μM, U0126 10 μM, PD184352 10 μM. It counts as cell-based, human. On the procedure: THEKs were seeded at a density of 1×10^6 cells per well of 6-well cell culture dishes in complete KSFM. Upon reaching confluence, KSFM was replaced with E-medium containing vehicle control (DMSO) or inhibitors at the following concentrations: Trametinib (1 μM), U0126 (10 μM), or PD184352 (10 μM). At the indicated time points, cell culture medium was removed and cells were washed once with PBS. RNA was extracted using the NucleoSpin RNA Plus Kit (Machery-Nagel of Duren, Germany) followed by reverse-transcription with the iScript cDNA synthesis kit (Bio-Rad of Hercules, CA) according to the manufacturer's instructions. Copy DNAs, also referred to as complementary DNAs (cDNAs) were diluted 5-fold and 2 μL of the resulting cDNAs were used for each 10 μL quantitative polymerase chain reaction (qPCR) assay. Real-time qPCR assays were carried out using the TaqMan Gene expression master mix (Applied Biosystems of Waltham, MA) according to the manufacturer's protocol. Pre-designed TaqMan probes from Thermo-Fisher were used for quantification of human Actb (Hs01060665_g1), Krt1 (Hs00196158_m1), Krt10 (Hs00166289_m1), Krt14 (Hs00265033_m1), Dsg1 (Hs00355084_m1), Alox12b (Hs00153961_m1), Alox15b (Hs00153988_m1), Ifi27 (Hs01086373_g1), Trpv3 (Hs00376854_m1), Trpv4 (Hs01099348_m1), or Notch1 (Hs01062014_m1). The housekeeping gene Actb was used as an endogenous control and mRNA fold changes were determined using the 2^(−ΔΔCt) method.
In general terms: In qPCR the cycle at which signal appears reflects the starting amount.

A further data set has as its system NHEKs. In words: KRT10 immunostaining of TG-treated keratinocytes. The format is cell-based, human. The conditions noted are these: 1 μM TG alone, 48 hours. On the procedure:
Keratinocytes were grown to confluence in 35 mm, glass-bottom cell culture dishes (MatTek of Ashland, MA, #P35G-1.5-20-C). For staining keratins and desmosomal proteins, cells were fixed in ice-cold 100% methanol at −20° C. for 2 minutes, allowed to dry, then re-hydrated in PBS. For staining other proteins, cells were fixed in 4% paraformaldehyde for 10 minutes at 37° C. Fixed cells were then incubated with blocking buffer [0.5% (w/v) bovine serum albumin (BSA, Sigma), 10% (w/v) normal goat serum (NGS, Sigma) in PBS] for 30 minutes at 37° C. Cells were then washed with PBS. Primary antibodies were diluted in 0.5% (w/v) BSA in PBS and incubated on the cells overnight at 4° C. Primary antibody dilutions were as follows: rabbit anti-SERCA2 (1:200), rabbit anti-cytokeratin 10 (1:2,000), mouse anti-Desmoglein 1 (1:100), mouse anti-Desmoglein 2 (1:100), mouse anti-Desmoglein 3 (1:100), mouse anti-Plakoglobin (1:100), rabbit anti-PERK1/2 (1:400), and mouse anti-ERK1/2 (1:400). Cells were washed three times with PBS, then incubated with species-specific secondary antibodies diluted at 1:300 (with or without Hoechst at 1:500) in 0.5% (w/v) BSA in PBS for 30 min at 37° C. […]
Fluorescence microscopy images were analyzed using Fiji software. Quantification of fluorescence intensity was performed in a blinded manner using non-visibly identifiable microscopy images. […]

Data set [6] has as its system organotypic cultures of NHEKs. In words: Immunostaining of KRT10 and pERK in organotypic epidermis treated with TG. The format is cell-based, human. The note with it: 1 μM TG, 48 hours. The method, then:
Paraffin-embedded formalin-fixed tissue cross-sections on glass slides were incubated at 65° C. for 2 h. Sections were prepared for staining by immersion in 3 baths of xylenes (Thermo-Fisher) for 5 min each, followed by 3 baths of 95% ethanol for 5 min each, then 70% ethanol for 5 minutes, and finally 3 baths of PBS for 5 min each. Slides were then submerged in antigen retrieval solution [0.1 M sodium citrate (pH 6.0) with 0.05% (v/v) Tween-20] and heated to 95° C. for 15 min. Slides were allowed to cool to room temperature and then washed with PBS. Tissue sections were encircled with a hydrophobic barrier using a PAP pen. Tissue sections were incubated in blocking buffer [0.5% (w/v) BSA, 10% (v/v) NGS in PBS] for 30 minutes at 37° C. in a humidified chamber. […]
Fluorescence images of immunostained tissue sections were captured by SDC microscopy as above and analyzed using Fiji. Quantification of fluorescence intensity was performed in using non-visibly labeled images from immunostained tissue cross-sections. The Fiji “Measure” function was used to calculate the mean intensity of the fluorescence signal and the mean background fluorescence intensity, which was subtracted from each value. The net fluorescence intensity was averaged across multiple non-overlapping HPF and the values from control cultures were normalized to an average value of 1.

For data set [7] the following is noted: B-RAF inhibitor monotherapy for cancer (Carlos G, et al. 2015); cited from earlier work.

Entries after “also recorded” stand apart in the source; their conditions may differ.

On to `COc1cccc(-c2cc(=O)c3ccccc3o2)c1N` [PD98059], for which, in data set [1], the “resistance of keratinocyte sheets to mechanical stress (number of fragments)” value is reported as “similarly rescued cohesion”. Also, the “integrity of epithelial sheets despite SERCA2 inhibition” value with NHEK monolayers [2] was “restored”. For the same molecule, the “integrity of keratinocyte sheets despite B-RAF inhibition” value with NHEK monolayers [3] is recorded as “comparably rescued cell cohesion”. For the same molecule, in data set [4] (1 μM TG plus 20 μM PD98059 or 1 μM trametinib), the “effect on TG-induced loss of keratinocyte cohesion” value is reported as “mitigated; also recorded: improved keratinocyte cohesion”. In addition, the “effect on TG-induced retention of nuclei in cornified layers / cornification” value in data set [4] (1 μM TG plus 20 μM PD98059 or 1 μM trametinib, 48 hours) is “reduced TG-induced retention of nuclei in the cornified layers; also recorded: normalization of cornification”.
For the molecule `O=C(NOCC1CC1)c1ccc(F)c(F)c1Nc1ccc(I)cc1Cl` [PD184352], in data set [5], the “DSG1 mRNA expression” value is reported as “sufficient to augment expression”, the “KRT1 mRNA expression” value is “sufficient to augment expression”, the “KRT10 mRNA expression” value is “sufficient to augment expression” and the “KRT14 mRNA levels” value is “did not significantly alter”.
`C/C=C(/C)C(=O)O[C@H]1C(C)=C2[C@H]([C@@H]1OC(=O)CCCCCCC)[C@@](C)(OC(C)=O)C[C@H](OC(=O)CCC)[C@@]1(O)[C@H]2OC(=O)[C@@]1(C)O` [TG, thapsigargin]: the epithelial sheet fragmentation result in the data set on NHEK monolayers [2] (1 μM TG alone) is recorded as “significant increase in epithelial sheet fragmentation; also recorded: readily fragmented”. The “KRT10 up-regulation by immunostaining” value with NHEKs is reported as “suppressed their ability to up-regulate KRT10”. Moreover, in data set [4] (1 μM TG alone, 48 hours), the “keratinocyte cohesion in organotypic epidermis” value is “disrupted keratinocyte cohesion most notably between basal and suprabasal cell layers; also recorded: loss of keratinocyte cohesion; also recorded: separation between basal and suprabasal layers”; the “retention of nuclei in cornified layers” value is “retention of nuclei in the cornified layers”. Also, in data set [6], the “KRT10 immunostaining in organotypic epidermis” value is reported as “reduction in KRT10” and the “pERK (ERK activation) in organotypic epidermis” value is “ERK hyper-activation”.
For `N#CC(=C(/N)Sc1ccccc1N)/C(C#N)=C(\N)Sc1ccccc1N` [U0126], the “integrity of epithelial sheets despite SERCA2 inhibition” value in the data set with NHEK monolayers [2] was “restored”. In addition, in the data set with NHEK monolayers [3], the “integrity of keratinocyte sheets despite B-RAF inhibition” value was “comparably rescued cell cohesion”. Also, in data set [5], the “DSG1 mRNA expression” value is given as “sufficient to augment expression”, the “KRT1 mRNA expression” value is recorded as “sufficient to augment expression”, the “KRT10 mRNA expression” value was “sufficient to augment expression” and the “KRT14 mRNA levels” value was “did not significantly alter”.
Take `CCCS(=O)(=O)Nc1ccc(F)c(C(=O)c2c[nH]c3ncc(-c4ccc(Cl)cc4)cc23)c1F` [vemurafenib]: the “patients in whom GD was seen” value in data set [7] was 38.9%.

The values above are taken from patent publication US20240299394A1, “TARGETED TREATMENT FOR SKIN FRAGILITY DISEASES” (University of Washington, priority 2023, published 2024).
